The record followed here is patent US12564580B2, “Mitochondria-targeted isoketal/isolevuglandin scavengers and uses thereof” (Vanderbilt University, priority 2020, dated 2026).

Test [1] concerns Intact mouse kidney mitochondria, complex I-mediated respiration. Description: Respiration of isolated kidney mitochondria with complex I substrates glutamate+malate after acute IsoLG/IsoLG-PE treatment. It is filed as biochemical.
In test [2] the test system is Intact mouse kidney mitochondria, complex II respiration. Briefly: Respiration of isolated kidney mitochondria with complex II substrate succinate after acute IsoLG/IsoLG-PE treatment. It is filed as biochemical. The following applies: acute addition of a low dose (0.5 μM printed elsewhere in the source). As to the method: FIGS. 1A-1C show acute treatment with IsoLG or IsoLG-PE impairs mitochondrial respiration. (A) Intact mouse kidney mitochondria were incubated (5 min) with ethanol as vehicle (Sham), IsoLG (20 μM) or IsoLG-PE (20 μM) and then diluted with respiration buffer 20-fold prior to addition of Glutamate and Malate, ADP (50 μM) and measurements of oxygen consumption in State III. *P<0.001 vs Sham, **P<0.03 vs IsoLG. (B) Oxygen consumption in the presence of complex I substrates Glutamate+Malate and ADP (State III) and Respiratory Control Ratio (State III/State IV, %) in intact kidney mitochondria treated with vehicle, IsoLG (1.5 μM) or IsoLG-PE (1.5 μM) in the respiration chamber. (C) State III respiration and Respiratory Control Ratio (State III/State IV, %) in presence of complex II substrate Succinate and ADP following addition of vehicle, IsoLG (1.5 μM) or IsoLG-PE (1.5 μM) in the respiration chamber.
Complex I is a key component of mitochondrial oxidative phosphorylation. Inactivation of complex I can lead to reduced ATP production and tissue damage. Addition of IsoLG to cells produces both protein—adducts and IsoLG-phosphatidylethanolamine adducts (IsoLG-PE) which can independently contribute to mitochondrial dysfunction. The present inventors tested whether IsoLG or IsoLG-PE could contribute to mitochondrial dysfunction. […]

The target of test [3] is complex II (Mus musculus, UniProt Q8K2B3+Q9CQA3+Q9CXV1+Q9CZB0). Briefly: Complex II activity in mouse kidney mitochondrial lysate. In kind it is biochemical. The following applies: mitochondrial lysates treated with a bolus of IsoLG.
complex II (Mus musculus, UniProt Q8K2B3+Q9CQA3+Q9CXV1+Q9CZB0), sequence (Q8K2B3 43-664): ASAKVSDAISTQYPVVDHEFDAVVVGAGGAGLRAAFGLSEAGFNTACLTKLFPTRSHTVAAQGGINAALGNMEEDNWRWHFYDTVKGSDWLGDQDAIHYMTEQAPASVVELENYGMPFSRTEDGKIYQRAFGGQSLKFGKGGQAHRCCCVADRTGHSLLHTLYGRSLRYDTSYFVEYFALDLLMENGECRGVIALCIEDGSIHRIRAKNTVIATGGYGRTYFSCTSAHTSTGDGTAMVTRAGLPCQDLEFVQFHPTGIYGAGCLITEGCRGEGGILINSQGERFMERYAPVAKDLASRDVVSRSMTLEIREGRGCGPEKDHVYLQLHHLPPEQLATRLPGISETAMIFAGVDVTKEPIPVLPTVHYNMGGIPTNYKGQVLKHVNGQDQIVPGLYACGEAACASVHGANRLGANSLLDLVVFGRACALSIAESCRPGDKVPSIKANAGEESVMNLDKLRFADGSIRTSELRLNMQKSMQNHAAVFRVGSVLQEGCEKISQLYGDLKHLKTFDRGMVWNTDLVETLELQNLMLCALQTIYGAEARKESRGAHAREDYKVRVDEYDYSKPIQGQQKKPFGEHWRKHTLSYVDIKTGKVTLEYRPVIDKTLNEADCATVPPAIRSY
complex II (Mus musculus, UniProt Q8K2B3+Q9CQA3+Q9CXV1+Q9CZB0), sequence (Q9CQA3 31-282): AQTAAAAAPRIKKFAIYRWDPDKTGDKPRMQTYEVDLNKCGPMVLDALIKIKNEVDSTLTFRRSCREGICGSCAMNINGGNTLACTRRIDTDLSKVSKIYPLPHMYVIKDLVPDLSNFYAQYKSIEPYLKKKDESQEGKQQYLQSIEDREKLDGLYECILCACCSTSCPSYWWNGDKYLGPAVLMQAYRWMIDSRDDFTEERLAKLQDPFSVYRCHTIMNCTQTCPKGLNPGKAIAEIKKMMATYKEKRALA
complex II (Mus musculus, UniProt Q8K2B3+Q9CQA3+Q9CXV1+Q9CZB0), sequence (Q9CZB0 30-169): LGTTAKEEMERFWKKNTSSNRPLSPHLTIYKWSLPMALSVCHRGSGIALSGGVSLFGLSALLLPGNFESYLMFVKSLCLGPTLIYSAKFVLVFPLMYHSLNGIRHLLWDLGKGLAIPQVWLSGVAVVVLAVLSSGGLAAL
complex II (Mus musculus, UniProt Q8K2B3+Q9CQA3+Q9CXV1+Q9CZB0), sequence (Q9CXV1 57-159): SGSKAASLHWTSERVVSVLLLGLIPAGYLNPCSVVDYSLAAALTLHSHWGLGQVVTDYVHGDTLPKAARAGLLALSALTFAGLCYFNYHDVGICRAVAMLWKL
Test [4] deals with complex I. Description: Complex I activity in mouse kidney mitochondrial lysate. The following applies: mitochondrial lysates treated with a bolus of IsoLG.
Method: (C) Mouse kidney mitochondrial lysate was acutely treated with DMSO (Control), ethanolamine, spermine, L-lysine, IsoLG (1.5 μM) or IsoLG modified-ethanolamine (IsoLG-ETN, 1.5 μM), -spermine (IsoLG-Sper, 1.5 μM), L-lysine (IsoLG-Lys, 1.5 μM), -phosphatidylethanolamine (IsoLG-PE, 1.5 μM) prior to measurements of complex I activity expressed as a % of Control (100%).
OXPHOS specific enzyme activities in submitochondrial particles (SMP) were measured using a Varian Cary 300 Bio UV/Vis spectrophotometer with temperature controlling cell holder. Briefly, SMP were prepared by sonication of isolated organelles. Complex I activity was monitored in triplicate samples as the reduction of 10 μM decylubiquinone at 272 nm by 15 μg of mitochondrial protein with 40 μM NADH.
To test this hypothesis, the present inventors studied the activity of complex I and complex II in mitochondrial lysates treated with a bolus of IsoLG.
In test [5] the test system is human aortic endothelial cells (HAEC). Briefly: Mitochondrial superoxide in human aortic endothelial cells stimulated with angiotensin II plus TNFα (mitoSOX HPLC). It is filed as cell-based. The procedure:
FIGS. 9A and B show the effect of mito2HOBA on mitochondrial superoxide and cardiolipin oxidation in human aortic endothelial cells induced by angiotensin II plus TNFα. (A) Mitochondrial superoxide was measured by HPLC analysis of mitoSOX-superoxide specific product, mito-2-hydroxyethidium (Mito-2OH-Et+). […] (B) Cardiolipin oxidation induced by Angiotensin II+TNFα measured my LC/MS. […] Data are mean±SEM. *P<0.01 vs Control, **P<0.01 vs Angiotensin II+TNFα (n=4).
Human aortic endothelial cells (HAEC) were purchased from Lonza (Chicago, IL) and cultured in EGM-2 medium supplemented with 2% FBS but without antibiotics. On the day before the study, the FBS concentration was reduced to 1%.
We tested if mito2HOBA reduces mitochondrial oxidative stress in human aortic endothelial cells (HAEC) stimulated with angiotensin II plus TNFα for 4-hours (FIG. 9). Indeed, supplementation of HAEC with mito2HOBA (50 nM) reduced mitochondrial superoxide production stimulated by TNF[…] and Ang II as measured by accumulation of specific superoxide-MitoSOX product, 2-OH-Mito-Ethidium.

Test [6] has as its system C57Bl/6J mice, Ang II-induced hypertension. Description: Blood pressure in angiotensin II model of hypertension (tail-cuff and telemetry). In kind it is in vivo, mouse. To be noted: same molar dose of untargeted 2HOBA (0.17 mmol/L) in drinking water. The source says:
FIGS. 10A-D show the effect of mito2HOBA on angiotensin II-induced hypertension and accumulation of mitochondrial isoLGs protein adducts. (A) Blood pressure tail-cuff measurements in male Sham or angiotensin II-infused mice supplied with mito2HOBA in drinking water (0.1 g/L) or equimolar amount of untargeted analog 2HOBA (0.17 mmol/L). (B) Telemetry studies of blood pressure in angiotensin II-infused mice supplied with mito2HOBA or plain water as a vehicle. (C) Representative LC/MS/MS chromatograms of isoLG-Lysyl-Lactam adduct; (D) isoLG-Lys-Lactam levels in kidney mitochondria isolated from Sham or angiotensin II-infused mice supplied with mito2HOBA. Results are mean±SEM. *P<0.01 vs Sham, **P<0.01 vs Ang II (n=8).
Hypertension was induced by angiotensin II ([…]) as described previously. To test the therapeutic potential of scavenging of mitochondrial isoLGs, wild-type C57B1/6J male and female mice (Jackson Labs) received saline or angiotensin II minipump placement, and provided with the plain water (vehicle) or mito2HOBA in the drinking water (0.1 g/liter). Blood pressure was monitored by the telemetry and tail-cuff measurements as previously described. The Vanderbilt Institutional Animal Care and Use Committee approved the procedures (Protocol M1700207). Simple randomization was used to select animals for sham, angiotensin II or mito2HOBA groups for equal chance of being allocated to treatment groups.
To test a functional role of mitochondrial isoLGs in hypertension, we used an Ang II model of hypertension, and monitored blood pressure by tail-cuff (FIG. 10A) and telemetry (FIG. 10B). […] Infusion of wild-type C57B1/6J mice with Ang II (0.7 mg/kg/day) increased systolic blood pressure to 162 mm Hg.

The target of test [7] is complex II (Mus musculus, UniProt Q8K2B3). Briefly: Glutamate-driven respiration of kidney mitochondria with Complex II inhibitor malonate. The following applies: malonate 5 mM, Glutamate+Malate.
complex II (Mus musculus, UniProt Q8K2B3), sequence (Q8K2B3 43-664): as the sequence (Q8K2B3 43-664) above
complex II (Mus musculus, UniProt Q8K2B3), sequence (Q9CQA3 31-282 partner): as the sequence (Q9CQA3 31-282) above
complex II (Mus musculus, UniProt Q8K2B3), sequence (Q9CZB0 30-169 partner): as the sequence (Q9CZB0 30-169) above
complex II (Mus musculus, UniProt Q8K2B3), sequence (Q9CXV1 57-159 partner): as the sequence (Q9CXV1 57-159) above
Method: To study the mitochondrial function, the combination of glutamate and malate (GM) or succinate was used as substrates. Since glutamate can be converted via transamination to α-ketoglutarate and further to succinate, the present inventors used complex II inhibitor malonate to define specific complex I respiration. The basal respiration (1) was measured in mitochondria supplemented with respiratory substrates. Then ADP was added to measure the coupled respiration (2). The proton leak (3) was determined after addition of complex V inhibitor oligomycin A. The uncoupled respiration (4) was measured after supplementation with CCCP. Finally, antimycin A plus rotenone were added to assess non-mitochondrial respiration (5) as described previously [32].
Mitochondria were isolated from 12-14-week-old male C57BL6/6J mouse kidneys. For respiration studies, electrons were entered at either complex I (glutamate+malate as substrate) or complex II (succinate as substrate). […] Since kidney mitochondria are much less studied than mitochondria from other organs, the present inventors used the specific inhibitor of Complex II malonate (5 mM) to evaluate the alternative pathways for glutamate oxidation. The Complex II mediated respiration was defined as malonate-inhibited oxygen consumption while Complex I specific respiration was defined as malonate resistant oxygen consumption. […]

Regarding 15-E2-isolevuglandin [15-E2-IsoLG], the “inhibition of state 3 respiration” value in test [1] (20 μM, five-minute treatment of isolated mitochondria, complex I substrates glutamate+malate) is given as 74%. In addition, the “complex I-mediated respiration” value in test [1] (acute addition of a low dose (0.5 μM printed elsewhere in the source), intact mitochondria) is recorded as “significantly attenuated”. Besides, the “complex II respiration” value in test [2] is “much less affected”. The “complex II activity inhibited” value in test [3] came to 21%. The “complex I inactivation” value in test [4] was 74%.
Regarding `NCc1ccccc1O` [2HOBA, 2-hydroxybenzylamine], the mitochondrial superoxide production entry in test [5] (50 nM, angiotensin II plus TNFα for 4-hours) was “did not affect”. Further, in test [5] (cultured HAEC, concentration not stated (discussion)), the mitochondrial superoxide overproduction entry is “partially attenuates”. Moreover, the “Ang II-induced hypertension” value in test [6] is recorded as “did not attenuate”.
As for `NCc1ccc(O)cc1` [4HOBA, 4-hydroxybenzylamine], the “mitochondrial superoxide (mitochondrial oxidative stress)” value in test [5] (4HOBA high dose 10 μM, angiotensin II plus TNFα) is “did not protect”.
For the compound `O=C(O)CC(=O)O` [Malonate, malonate], the “inhibition of glutamate-driven respiration” value in test [7] came to 58%.
